T/C data for 17 compounds are collected here from PubChem BioAssay AID330 (DTP/NCI, 2004).

This assay deals with P388 leukemia ip, CD2F1 mice, survival T/C. In words: NCI In Vivo Anticancer Drug Screen. Data for tumor model P388 Leukemia (intraperitoneal) in CD2F1 (CDF1) mice. The following applies: endpoint: median survival time, higher = longer survival. The procedure, abridged:
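Mice carrying the transplanted tumor received test compound or vehicle. Survival was recorded in each group, and the value is the treated-group measurement divided by that of the vehicle-treated control group.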

The mark [1] stands for this setting: dose: 100.0 mg/kg/injection, schedule: Q01DX009 (ip), vehicle: saline with Tween-80.
The mark [2] stands for this setting: dose: 50.0 mg/kg/injection, schedule: Q01DX005 (ip), vehicle: saline.
[3] abbreviates: dose: 100.0 mg/kg/injection, schedule: Q01DX005 (ip), vehicle: saline.
Setting [4] is: dose: 100.0 mg/kg/injection, schedule: Q01DX001 (ip), vehicle: saline with Tween-80.
Where [5] appears, read: dose: 200.0 mg/kg/injection, schedule: Q01DX001 (ip), vehicle: saline with Tween-80.
Where [6] appears, read: dose: 400.0 mg/kg/injection, schedule: Q01DX001 (ip), vehicle: saline with Tween-80.

The structures appear in SMILES notation. Where “and” joins values, the source holds several entries; their conditions need not be identical. Equal entries are not always repeated. Inconclusive results and toxic doses are left out. Square brackets hold non-standard residues; d marks the D form. Peptide text beside a SMILES is read from it. * marks the point of attachment. ξ: configuration not given here. Cbz = O=C(OCc1ccccc1)*; OBn = c1ccc(CO*)cc1; ξS = NC(CO)C(=O)O

Take `C1#CCCCCCC#CCCCC1`: the T/C is 109 % of control (dose: 20.0 mg/kg/injection, schedule: Q01DX009 (ip), vehicle: saline with Tween-80); 104 % of control (dose: 30.0 mg/kg/injection, schedule: Q01DX009 (ip), vehicle: saline with Tween-80); 100 % of control (dose: 44.0 mg/kg/injection, schedule: Q01DX009 (ip), vehicle: saline with Tween-80); 104 % of control (dose: 66.0 mg/kg/injection, schedule: Q01DX009 (ip), vehicle: saline with Tween-80); 104 % of control under setting [1]; 109 % of control (dose: 150.0 mg/kg/injection, schedule: Q01DX009 (ip), vehicle: saline with Tween-80).

On to `C=CC(C)(C)c1c(OC)oc(-c2ccccc2)cc1=O`, for which the T/C is 106 % of control (dose: 5.0 mg/kg/injection, schedule: Q01DX005 (ip), vehicle: saline + Tween-80 + alcohol); 111 % of control (dose: 10.0 mg/kg/injection, schedule: Q01DX005 (ip), vehicle: saline + Tween-80 + alcohol); 106 % of control (dose: 20.0 mg/kg/injection, schedule: Q01DX005 (ip), vehicle: saline + Tween-80 + alcohol); 110 % of control (dose: 40.0 mg/kg/injection, schedule: Q01DX005 (ip), vehicle: saline + Tween-80 + alcohol).

`CCOP(=O)(N=Nc1ccc(OC)nc1)OCC`: the T/C runs as follows: (dose: 12.5 mg/kg/injection, schedule: Q01DX005 (ip), vehicle: saline) 102 % of control; (dose: 25.0 mg/kg/injection, schedule: Q01DX005 (ip), vehicle: saline) 109 % of control; under setting [2], 100 % of control; under setting [3], 108 % of control; (dose: 1560.0 micrograms/kg/injection, schedule: Q01DX009 (ip), vehicle: saline) 104 % of control; (dose: 3125.0 micrograms/kg/injection, schedule: Q01DX009 (ip), vehicle: saline) 102 % of control. The T/C is, setting by setting: (dose: 6250.0 micrograms/kg/injection, schedule: Q01DX009 (ip), vehicle: saline) 108 % of control; (dose: 12500.0 micrograms/kg/injection, schedule: Q01DX009 (ip), vehicle: saline) 106 % of control; (dose: 25000.0 micrograms/kg/injection, schedule: Q01DX009 (ip), vehicle: saline) 112 % of control.

As for `CCC(=O)Oc1ccc(N=Nc2ccc(O)c(/C=N\NC(=O)CNc3ccccc3)c2)cc1`, the T/C under setting [4] is 88 % of control, the T/C under setting [5] is 86 % of control and the T/C under setting [6] was 100 % of control.

Consider `Nc1nc2nc(-c3ccccc3)nc(N)c2nc1C(=O)N/N=C/c1ccccc1`, for which the T/C by setting is: under setting [1], 96 % of control; (dose: 200.0 mg/kg/injection, schedule: Q01DX009 (ip), vehicle: saline with Tween-80) 95 % of control; (dose: 400.0 mg/kg/injection, schedule: Q01DX009 (ip), vehicle: saline with Tween-80) 100 % of control.

Regarding `C[n+]1ccc(I)c2ccc(Cl)cc21`, the T/C is 101 % of control (dose: 12.5 mg/kg/injection, schedule: Q01DX009 (ip), vehicle: Klucel (hydroxypropylcellulose) (HPC)); 104 % of control (dose: 25.0 mg/kg/injection, schedule: Q01DX009 (ip), vehicle: Klucel (hydroxypropylcellulose) (HPC)); 109 % of control (dose: 50.0 mg/kg/injection, schedule: Q01DX009 (ip), vehicle: Klucel (hydroxypropylcellulose) (HPC)).

On to `C=CCC12CC(O)C(O)CC1(OC)OC(c1cc(OC)c(OC)c(OC)c1)C2C` (stereo unspecified), for which the T/C is 102 % of control (dose: 1.25 mg/kg/injection, schedule: Q01DX005 (ip), vehicle: acid diluted with saline); 102 % of control (dose: 2.5 mg/kg/injection, schedule: Q01DX005 (ip), vehicle: acid diluted with saline); 98 % of control (dose: 5.0 mg/kg/injection, schedule: Q01DX005 (ip), vehicle: acid diluted with saline); 102 % of control (dose: 10.0 mg/kg/injection, schedule: Q01DX005 (ip), vehicle: acid diluted with saline).

Turning to `CCn1c2ccccc2c2cc(NC(=S)NC(=O)c3ccccc3)ccc21`, the T/C is 87 % of control (dose: 50.0 mg/kg/injection, schedule: Q01DX005 (ip), vehicle: saline with Tween-80); 86 % of control (dose: 100.0 mg/kg/injection, schedule: Q01DX005 (ip), vehicle: saline with Tween-80); 87 % of control (dose: 200.0 mg/kg/injection, schedule: Q01DX005 (ip), vehicle: saline with Tween-80).

For `CC(C)(C)c1cc(C(=O)O)c2c(c1)C(=O)OCS2`, the T/C reads like this: (dose: 100.0 mg/kg/injection, schedule: Q04DX003 (ip), vehicle: Klucel (hydroxypropylcellulose) (HPC)) 99 % of control; (dose: 200.0 mg/kg/injection, schedule: Q04DX003 (ip), vehicle: Klucel (hydroxypropylcellulose) (HPC)) 91 % of control; (dose: 400.0 mg/kg/injection, schedule: Q04DX003 (ip), vehicle: Klucel (hydroxypropylcellulose) (HPC)) 97 % of control.

For `COC(=O)c1ccc(Cl)cc1OC`, the T/C was 101 % of control (dose: 12.5 mg/kg/injection, schedule: Q01DX009 (ip), vehicle: distilled water + Tween-80); 99 % of control (dose: 25.0 mg/kg/injection, schedule: Q01DX009 (ip), vehicle: distilled water + Tween-80); 99 % of control (dose: 50.0 mg/kg/injection, schedule: Q01DX009 (ip), vehicle: distilled water + Tween-80); 101 % of control (dose: 100.0 mg/kg/injection, schedule: Q01DX009 (ip), vehicle: distilled water + Tween-80); 101 % of control (dose: 200.0 mg/kg/injection, schedule: Q01DX009 (ip), vehicle: distilled water + Tween-80).

As to `CCC[CH2][Pb]([Cl])([CH2]CCC)[CH2]CCC`, the T/C was 99 % of control (dose: 1.25 mg/kg/injection, schedule: Q01DX009 (ip), vehicle: saline with Tween-80); 99 % of control (dose: 2.5 mg/kg/injection, schedule: Q01DX009 (ip), vehicle: saline with Tween-80); 107 % of control (dose: 5.0 mg/kg/injection, schedule: Q01DX009 (ip), vehicle: saline with Tween-80); 103 % of control (dose: 10.0 mg/kg/injection, schedule: Q01DX009 (ip), vehicle: saline with Tween-80).

As for `O=C(CNC(=O)C(CO)NC(=O)OCc1ccccc1)NCC(=O)OCc1ccccc1` (stereo not drawn) (Cbz-[ξS]-Gly-Gly-OBn), the T/C runs as follows: (dose: 50.0 mg/kg/injection, schedule: Q01DX005 (ip), vehicle: Klucel (hydroxypropylcellulose) (HPC)) 101 % of control; (dose: 100.0 mg/kg/injection, schedule: Q01DX005 (ip), vehicle: Klucel (hydroxypropylcellulose) (HPC)) 99 % of control; (dose: 200.0 mg/kg/injection, schedule: Q01DX005 (ip), vehicle: Klucel (hydroxypropylcellulose) (HPC)) 97 % of control.

Turning to `CCCCCCCCCCCCCC(CCCC)CCCCCCCC` (stereo unspecified), the T/C is, setting by setting: (dose: 37.5 mg/kg/injection, schedule: Q01DX001 (ip), vehicle: saline sonified) 104 % of control; (dose: 75.0 mg/kg/injection, schedule: Q01DX001 (ip), vehicle: saline sonified) 100 % of control; (dose: 150.0 mg/kg/injection, schedule: Q01DX001 (ip), vehicle: saline sonified) 100 % of control.

Consider `C[n+]1c(SCC(=O)O)sc2ccccc21`, for which the T/C is, setting by setting: (dose: 12.5 mg/kg/injection, schedule: Q01DX009 (ip), vehicle: saline) 99 % of control; (dose: 25.0 mg/kg/injection, schedule: Q01DX009 (ip), vehicle: saline) 104 % of control; (dose: 50.0 mg/kg/injection, schedule: Q01DX009 (ip), vehicle: saline) 108 % of control and 122 % of control.

`COc1cc2c(cc1OC)C(CC1CCN(C)CC1)NCC2` (stereo unspecified): the T/C is 106 % of control under setting [2]; 103 % of control under setting [3]; 103 % of control (dose: 200.0 mg/kg/injection, schedule: Q01DX005 (ip), vehicle: saline).

Turning to `O=C1NC(=O)C2(N1)C1CCCCC2C(c2ccccc2)NC1c1ccccc1` (stereo unspecified), the T/C by setting is: under setting [4], 100 % of control; under setting [5], 98 % of control; under setting [6], 96 % of control.

Take `CC[C@@]1(O)C[C@H](OC2CC(N(C)C)C(OC3CC(O)C(OC4CC(O)C(O)C(C)O4)C(C)O3)C(C)O2)c2c(cc3c(c2O)C(=O)c2c(O)ccc(O)c2C3=O)[C@H]1C(=O)OC` (stereo partly specified): the T/C was 157 % of control (dose: 1.8 mg/kg/injection, schedule: Q04DX003 (ip), vehicle: water); 155 % of control (dose: 2.7 mg/kg/injection, schedule: Q04DX003 (ip), vehicle: water); 163 % of control (dose: 3.8 mg/kg/injection, schedule: Q01DX001 (ip), vehicle: other); 157 % of control (dose: 7.5 mg/kg/injection, schedule: Q01DX001 (ip), vehicle: other).
